In US8436036B2, “Diaryl ethers” (Janssen R&D Ireland, priority 2009, dated 2013):

Columns and labels:
Cytotoxicity (Huh-7) = format: cell-based; conditions: human, Huh-7 cells
Text: The in vitro antiviral activity against HCV of the compounds of formula I can be tested in a cellular HCV replicon system based on Lohmann et al. (1999) Science 285:110-113, with the further modifications described by Krieger et al. (2001) Journal of Virology 75: 4614-4624 (incorporated herein by reference), which is further exemplified in the examples section. This model, while not a complete infection model for HCV, is widely accepted as the most robust and efficient model of autonomous HCV RNA replication currently available. It will be appreciated that it is important to distinguish between compounds that specifically interfere with HCV functions from those that exert cytotoxic or cytostatic effects in the HCV replicon model, and as a consequence cause a decrease in HCV RNA or linked reporter enzyme concentration. Assays are known in the field for the evaluation of cellular cytotoxicity based for example on the activity of mitochondrial enzymes using fluorogenic redox dyes such as resazurin. Furthermore, cellular counter screens exist for the evaluation of non-selective inhibition of linked reporter gene activity, such as firefly luciferase. Appropriate cell types can be equipped by stable transfection with a luciferase reporter gene whose expression is dependent on a constitutively active gene promoter, and such cells can be used as a counter-screen to eliminate non-selective inhibitors.

HCV replicon = HCV replicon assay (Huh-Luc cells, luciferase read-out); format: cell-based, HCV type Ib; conditions: Hepatitis C virus, 72 h, three days incubation, luciferase activity
Text: The compounds of formula (I) were examined for inhibitory activity in the HCV replicon. This cellular assay is based on a bicistronic expression construct, as described by Lohmann et al. (1999) Science vol. 285 pp. 110-113 with modifications described by Krieger et al. (2001) Journal of Virology 75: 4614-4624, in a multi-target screening strategy.
In essence, the method was as follows:
The assay utilized the stably transfected cell line Huh-7 luc/neo (hereafter referred to as Huh-Luc). This cell line harbors an RNA encoding a bicistronic expression construct comprising the wild type NS3-NS5B regions of HCV type Ib translated from an Internal Ribosome Entry Site (IRES) from encephalomyocarditis virus (EMCV), preceded by a reporter portion (FfL-luciferase), and a selectable marker portion (neo^R, neomycine phosphotransferase). The construct is flanked by 5′ and 3′ NTRs (non-translated regions) from HCV type Ib. Continued culture of the replicon cells in the presence of G418 (neo^R) is dependent on the replication of the HCV RNA. The stably transfected replicon cells that express HCV RNA, which replicates autonomously and to high levels, encoding inter alia luciferase, were used for screening the antiviral compounds.
The replicon cells were plated in 384 well plates in the presence of the test and control compounds which were added in various concentrations. Following an incubation of three days, HCV replication was measured by assaying luciferase activity (using standard luciferase assay substrates and reagents and a Perkin Elmer ViewLux™ ultraHTS microplate imager). Replicon cells in the control cultures have high luciferase expression in the absence of any inhibitor. The inhibitory activity of the compound on luciferase activity was monitored on the Huh-Luc cells, enabling a dose-response curve for each test compound. EC50 values were then calculated, which represent the amount of compound required to decrease the level of detected luciferase activity by 50%, or more specifically, to reduce the ability of the genetically linked HCV replicon RNA to replicate.

Row | SMILES | CC50 (Cytotoxicity (Huh-7)) [µM] | EC50 (HCV replicon) [nM]
1 | COC(=O)N[C@H](C(=O)N1CCC[C@H]1c1ncc(-c2ccc(Oc3cccc(-c4cnc([C@@H]5CCCN5C(=O)[C@@H](NC(=O)OC)C(C)(C)C)[nH]4)c3)cc2)[nH]1)C(C)(C)C [Example 40] | 12.6 | 0.165
2 | O=C([C@@H](O)c1ccccc1)N1CCC[C@H]1c1nc(-c2cccc(Oc3ccc(-c4cnc([C@@H]5CCCN5C(=O)[C@@H](O)c5ccccc5)[nH]4)cc3)c2)c[nH]1 [Example 23] | 3.66 | 60.8
3 | O=C(CCc1cccnc1)N1CCC[C@H]1c1nc(-c2cccc(Oc3ccc(-c4cnc([C@@H]5CCCN5C(=O)CCc5cccnc5)[nH]4)cc3)c2)c[nH]1 [Example 29] | > 31.5 | 3.98
